One assay addresses GST-hASK1 (Homo sapiens (Human), UniProt Q99683). Nature of the assay: ASK1 TR-FRET assay. It is filed as biochemical. As to conditions: 5 nM GST-hASK1, 100 μM ATP, 2 μM STK Substrate 3. As for the experimental part:
The protein kinase activity of 5 nM GST-hASK1(Life Technologies PV4011) was assayed with 100 μM ATP and 2 μM of HTRF biotinylated STK Substrate 3 (CisBio Kit 62ST3PEJ), at ambient temperature in 25 mM Hepes, pH 7.5, 50 mM NaCl, 10 mM MgCl2, 0.02% Brij-35, 1 mM DTT, and 1% DMSO.
After a 10 minute pre-incubation, ASK1 protein kinase activity was initiated by addition of 10 μL of 300 μM ATP.

In the next assay the target is ASK1/MAP3K5 (Homo sapiens (Human), UniProt Q99683). Nature of the assay: ASK1/MAP3K5 assay by Reaction Biology Corp. It is filed as biochemical. As to conditions: 20 μM myelin basic protein (MBP), 10 μM ATP. As for the experimental part:
ASK1/MAP3K5 was used as the protein kinase and 20 μM of myelin basic protein (MBP) and 10 μM ATP were used as the substrate.

Assay [1] deals with ASK1 T838 auto phosphorylation in HEK-293T cells (Homo sapiens (Human), UniProt Q99683). Nature of the assay: ASK1 (AUTO PHOS T838) assay, MSD format. It is filed as cell-based.
The mark [2] stands for this setting: HEK 293T cells transfected with ASK1-V5 full length plasmid, compounds 1 hr at 37° C., read-out: IC50.

Read-outs that look alike come from different tables or passages of the source. Bounds are passed on as bounds.

Sequence of GST-hASK1 (Q99683 649-946): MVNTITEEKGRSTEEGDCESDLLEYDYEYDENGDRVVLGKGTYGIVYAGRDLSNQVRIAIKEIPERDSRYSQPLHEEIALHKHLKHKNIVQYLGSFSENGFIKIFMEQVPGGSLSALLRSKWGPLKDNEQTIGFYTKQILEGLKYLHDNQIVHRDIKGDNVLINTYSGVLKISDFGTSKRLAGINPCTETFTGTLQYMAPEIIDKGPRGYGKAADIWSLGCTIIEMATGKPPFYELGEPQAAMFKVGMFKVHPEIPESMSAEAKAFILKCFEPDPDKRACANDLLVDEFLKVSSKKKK
Sequence of ASK1 T838 auto phosphorylation in HEK-293T cells (Q99683 whole entry): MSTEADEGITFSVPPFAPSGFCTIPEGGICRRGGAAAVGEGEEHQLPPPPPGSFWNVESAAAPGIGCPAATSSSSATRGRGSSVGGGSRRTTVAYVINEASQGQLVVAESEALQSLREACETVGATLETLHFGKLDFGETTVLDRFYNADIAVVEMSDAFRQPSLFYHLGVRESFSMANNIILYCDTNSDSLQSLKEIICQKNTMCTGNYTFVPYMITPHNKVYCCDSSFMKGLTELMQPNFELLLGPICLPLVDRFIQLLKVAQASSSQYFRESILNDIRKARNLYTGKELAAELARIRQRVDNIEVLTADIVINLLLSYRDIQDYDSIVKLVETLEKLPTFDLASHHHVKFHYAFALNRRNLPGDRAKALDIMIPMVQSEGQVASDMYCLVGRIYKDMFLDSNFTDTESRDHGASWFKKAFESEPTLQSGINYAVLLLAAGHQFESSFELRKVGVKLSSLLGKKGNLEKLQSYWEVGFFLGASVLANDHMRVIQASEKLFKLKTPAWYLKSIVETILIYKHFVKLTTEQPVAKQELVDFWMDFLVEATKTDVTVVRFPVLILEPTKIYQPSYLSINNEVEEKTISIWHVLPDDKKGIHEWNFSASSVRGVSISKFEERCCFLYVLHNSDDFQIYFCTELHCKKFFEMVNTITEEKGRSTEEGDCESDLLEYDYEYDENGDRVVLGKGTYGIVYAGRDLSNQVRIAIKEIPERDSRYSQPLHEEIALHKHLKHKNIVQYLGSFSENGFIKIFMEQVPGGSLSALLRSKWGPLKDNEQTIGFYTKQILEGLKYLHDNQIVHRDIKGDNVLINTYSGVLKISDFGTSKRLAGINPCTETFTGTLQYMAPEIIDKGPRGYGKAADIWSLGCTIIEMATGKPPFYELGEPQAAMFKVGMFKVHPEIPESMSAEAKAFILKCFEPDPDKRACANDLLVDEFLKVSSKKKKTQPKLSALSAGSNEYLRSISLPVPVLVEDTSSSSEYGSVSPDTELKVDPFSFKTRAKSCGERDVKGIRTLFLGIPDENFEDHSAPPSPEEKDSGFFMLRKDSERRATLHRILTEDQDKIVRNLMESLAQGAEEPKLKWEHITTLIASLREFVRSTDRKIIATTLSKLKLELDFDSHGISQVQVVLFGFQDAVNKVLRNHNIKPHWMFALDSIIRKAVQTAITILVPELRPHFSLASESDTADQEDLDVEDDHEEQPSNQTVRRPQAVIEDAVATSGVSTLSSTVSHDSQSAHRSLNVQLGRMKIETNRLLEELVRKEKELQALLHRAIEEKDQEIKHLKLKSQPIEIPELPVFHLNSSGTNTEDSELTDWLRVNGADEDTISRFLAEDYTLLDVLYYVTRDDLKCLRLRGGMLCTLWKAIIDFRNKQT
Sequence of ASK1/MAP3K5 (Q99683 whole entry): as above

Take `O=C1Nc2cccc(n2)-c2nncn2CCCCOc2ccc(C3CCOC3)cc21` (racemic) [Example 15, rac-5^5-(Tetrahydrofuran-3-yl)-1^4H-6-oxa-3-aza-2(2,6)-pyridina-1(3,4)-triazola-5(1,2)-benzenacyclodecaphan-4-one]: the IC50 against GST-hASK1 is less than 100 nM; against ASK1/MAP3K5, less than 100 nM; in assay [1] (setting [2]) it was less than 1000 nM.
For `O=C1Nc2cccc(n2)-c2nncn2CCCCOc2ccc(N3C4CCC3COC4)cc21` [Example 5, 5^5-(3-Oxa-8-azabicyclo[3.2.1]octan-8-yl)-1^4H-6-oxa-3-aza-2(2,6)-pyridina-1(3,4)-triazola-5(1,2)-benzenacyclodecaphan-4-one], the IC50 was less than 100 nM against GST-hASK1, less than 100 nM against ASK1/MAP3K5 and less than 1000 nM in assay [1] (setting [2]).
Turning to `O=C1Nc2cccc(n2)-c2nncn2CCCCOc2ccc(N3CC4CC(C3)O4)cc21` [Example 6, 5^5-(6-Oxa-3-azabicyclo[3.1.1]heptan-3-yl)-1^4H-6-oxa-3-aza-2(2,6)-pyridina-1(3,4)-triazola-5(1,2)-benzenacyclodecaphan-4-one], the IC50 is less than 100 nM at GST-hASK1, less than 100 nM against ASK1/MAP3K5 and less than 1000 nM in assay [1] (setting [2]).
Turning to `O=C1Nc2cccc(n2)-c2nncn2CCCCOc2ccc(N3C4COCC3C4)cc21` [Example 8, 5^5-(3-Oxa-6-azabicyclo[3.1.1]heptan-6-yl)-1^4H-6-oxa-3-aza-2(2,6)-pyridina-1(3,4)-triazola-5(1,2)-benzenacyclodecaphan-4-one], the IC50 against GST-hASK1 is less than 100 nM; against ASK1/MAP3K5, less than 100 nM; in assay [1] (setting [2]), 1000 to 10000 nM.
As to `O=C1Nc2cccc(n2)-c2nncn2CCCCOc2ccc(N3CC(F)(F)C3)cc21` [Example 9, 5^5-(3,3-Difluoroazetidin-1-yl)-1^4H-6-oxa-3-aza-2(2,6)-pyridina-1(3,4)-triazola-5(1,2)-benzenacyclodecaphan-4-one], the IC50 was less than 100 nM against GST-hASK1, less than 100 nM against ASK1/MAP3K5 and less than 1000 nM in assay [1] (setting [2]).
On to `O=C1Nc2cccc(n2)-c2nncn2CCCCOc2ccc(N3CCC(F)(F)C3)cc21` [Example 10, 5^5-(3,3-Difluoropyrrolidin-1-yl)-1^4H-6-oxa-3-aza-2(2,6)-pyridina-1(3,4)-triazola-5(1,2)-benzenacyclodecaphan-4-one], for which the results for the IC50 (against GST-hASK1; on ASK1/MAP3K5; in assay [1] (setting [2])) were less than 100 nM, less than 100 nM and less than 1000 nM, respectively.
For `O=C1Nc2cccc(n2)-c2nncn2CCCCOc2ccc(N3CCCC(F)(F)C3)cc21` [Example 11, 5^5-(3,3-Difluoropiperidin-1-yl)-1^4H-6-oxa-3-aza-2(2,6)-pyridina-1(3,4)-triazola-5(1,2)-benzenacyclodecaphan-4-one], the results for the IC50 (on GST-hASK1; on ASK1/MAP3K5; in assay [1] (setting [2])) were less than 100 nM, less than 100 nM and less than 1000 nM, respectively.
As for `O=C1Nc2cccc(n2)-c2nncn2CCCCOc2ccc(N3CCC(F)(F)CC3)cc21` [Example 12, 5^5-(4,4-Difluoropiperidin-1-yl)-1^4H-6-oxa-3-aza-2(2,6)-pyridina-1(3,4)-triazola-5(1,2)-benzenacyclodecaphan-4-one], the IC50 against GST-hASK1 is less than 100 nM; against ASK1/MAP3K5, less than 100 nM; in assay [1] (setting [2]), less than 1000 nM.
For `O=C1Nc2cccc(n2)-c2nncn2CCCCOc2ccc(C3CCOCC3)cc21` [Example 17, 5^5-(Tetrahydro-2H-pyran-4-yl)-1^4H-6-oxa-3-aza-2(2,6)-pyridina-1(3,4)-triazola-5(1,2)-benzenacyclodecaphan-4-one], the IC50 at GST-hASK1 is less than 100 nM; at ASK1/MAP3K5, less than 100 nM; in assay [1] (setting [2]), less than 1000 nM.
As for `Cc1ccc2c(c1)C(=O)Nc1cccc(n1)-c1nncn1CCCCO2` [Example 18, 5^5-Methyl-1^4H-6-oxa-3-aza-2(2,6)-pyridina-1(3,4)-triazola-5(1,2)-benzenacyclodecaphan-4-one], the IC50 was less than 100 nM against GST-hASK1, less than 100 nM against ASK1/MAP3K5 and less than 1000 nM in assay [1] (setting [2]).
Turning to `N#Cc1ccc2c(c1)C(=O)Nc1cccc(n1)-c1nncn1CCCCO2` [Example 20, 4-Oxo-1^4H-6-oxa-3-aza-2(2,6)-pyridina-1(3,4)-triazola-5(1,2)-benzenacyclodecaphane-5^5-carbonitrile], the IC50 is less than 100 nM at GST-hASK1, less than 100 nM on ASK1/MAP3K5 and less than 1000 nM in assay [1] (setting [2]).
On to `O=C1Nc2cccc(n2)-c2nncn2CCCCOc2ccc(-n3cnc(C4CC4)c3)cc21` [Example 22, 5^5-(4-Cyclopropyl-1H-imidazol-1-yl)-1^4H-6-oxa-3-aza-2(2,6)-pyridina-1(3,4)-triazola-5(1,2)-benzenacyclodecaphan-4-one], for which the IC50 against GST-hASK1 was less than 100 nM; against ASK1/MAP3K5, less than 100 nM; in assay [1] (setting [2]), less than 1000 nM.
As to `Cn1nccc1-c1ccc2c(c1)C(=O)Nc1cccc(n1)-c1nncn1CCCCO2` [Example 23, 5^5-(1-Methyl-1H-pyrazol-5-yl)-1^4H-6-oxa-3-aza-2(2,6)-pyridina-1(3,4)-triazola-5(1,2)-benzenacyclodecaphan-4-one], the IC50 on GST-hASK1 is less than 100 nM; against ASK1/MAP3K5, less than 100 nM; in assay [1] (setting [2]) it was less than 1000 nM.
For `O=C1Nc2cccc(n2)-c2nncn2CCCCOc2ccc(-c3cccnc3)cc21` [Example 26, 5^5-(Pyridin-3-yl)-1^4H-6-oxa-3-aza-2(2,6)-pyridina-1(3,4)-triazola-5(1,2)-benzenacyclodecaphan-4-one], the IC50 on GST-hASK1 is less than 100 nM; against ASK1/MAP3K5 it was less than 100 nM; in assay [1] (setting [2]) it was less than 1000 nM.
`O=C1Nc2cccc(n2)-c2nncn2CCCCOc2ccc(-c3ccncc3)cc21` [Example 27, 5^5-(Pyridin-4-yl)-1^4H-6-oxa-3-aza-2(2,6)-pyridina-1(3,4)-triazola-5(1,2)-benzenacyclodecaphan-4-one]: the values for the IC50 (against GST-hASK1; on ASK1/MAP3K5; in assay [1] (setting [2])) were less than 100 nM, less than 100 nM and less than 1000 nM, respectively.
Turning to `Cn1cncc1-c1ccc2c(c1)C(=O)Nc1cccc(n1)-c1nncn1CCCCO2` [Example 29, 5^5-(1-Methyl-1H-imidazol-5-yl)-1^4H-6-oxa-3-aza-2(2,6)-pyridina-1(3,4)-triazola-5(1,2)-benzenacyclodecaphan-4-one], the IC50 against GST-hASK1 was less than 100 nM; against ASK1/MAP3K5 it was less than 100 nM; in assay [1] (setting [2]) it was less than 1000 nM.
`O=C1Nc2cccc(n2)-c2nncn2C/C=C/COc2cc(F)ccc21` [Example 157, (E)-5^4-Fluoro-1^4H-6-oxa-3-aza-2(2,6)-pyridina-1(3,4)-triazola-5(1,2)-benzenacyclodecaphan-8-en-4-one]: the IC50 against GST-hASK1 lay within 100 to 1000 nM; in assay [1] (setting [2]), 1000 to 10000 nM.
As to `O=C1Nc2cccc(n2)-c2nncn2C/C=C/COc2ccc(F)cc21` [Example 158, (E)-5^5-Fluoro-1^4H-6-oxa-3-aza-2(2,6)-pyridina-1(3,4)-triazola-5(1,2)-benzenacyclodecaphan-8-en-4-one], the IC50 at GST-hASK1 lay within 100 to 1000 nM; in assay [1] (setting [2]), 1000 to 10000 nM.
Consider `O=C1Nc2cccc(n2)-c2nncn2C/C=C\COc2ccc(F)cc21` [Example 159, (Z)-5^5-Fluoro-1^4H-6-oxa-3-aza-2(2,6)-pyridina-1(3,4)-triazola-5(1,2)-benzenacyclodecaphan-8-en-4-one], for which the IC50 against GST-hASK1 was less than 100 nM; in assay [1] (setting [2]), less than 1000 nM.
For `O=C1Nc2cccc(n2)-c2nncn2C/C=C\COc2ccc(Br)cc21` [Example 161, (Z)-5^5-Bromo-1^4H-6-oxa-3-aza-2(2,6)-pyridina-1(3,4)-triazola-5(1,2)-benzenacyclodecaphan-8-en-4-one], the IC50 on GST-hASK1 was less than 100 nM; in assay [1], 1000 to 10000 nM.
In the case of `O=C1Nc2cccc(n2)-c2nncn2C/C=C/COc2ccc(Br)cc21` [Example 162, (E)-5^5-Bromo-1^4H-6-oxa-3-aza-2(2,6)-pyridina-1(3,4)-triazola-5(1,2)-benzenacyclodecaphan-8-en-4-one], the IC50 against GST-hASK1 is less than 100 nM; in assay [1] (setting [2]), 1000 to 10000 nM.
Taken in the same sequence, the figures for `O=C1Nc2cccc(n2)-c2nncn2C/C=C/COc2c(Br)cccc21` [Example 163, (E)-5^3-Bromo-1^4H-6-oxa-3-aza-2(2,6)-pyridina-1(3,4)-triazola-5(1,2)-benzenacyclodecaphan-8-en-4-one] were 100 to 1000 nM and greater than 10000 nM.
For the molecule `O=C1Nc2cccc(n2)-c2nncn2C/C=C\COc2c(Br)cccc21` [Example 164, (Z)-5^3-Bromo-1^4H-6-oxa-3-aza-2(2,6)-pyridina-1(3,4)-triazola-5(1,2)-benzenacyclodecaphan-8-en-4-one], the half-inhibitory concentration (IC50) against GST-hASK1 (class given in words) is no less than 10000 nM; in assay [1] (setting [2]) it was greater than 10000 nM.
For `O=C1Nc2cccc(n2)-c2nncn2C/C=C/COc2c1cccc2C(F)(F)F` [Example 166, (E)-5^3-(Trifluoromethyl)-1^4H-6-oxa-3-aza-2(2,6)-pyridina-1(3,4)-triazola-5(1,2)-benzenacyclodecaphan-8-en-4-one], the IC50 on GST-hASK1 is 1000 to 10000 nM; in assay [1] (setting [2]), greater than 10000 nM.
In the case of `O=C1Nc2cccc(n2)-c2nncn2C/C=C\COc2c1cccc2C(F)(F)F` [Example 167, (Z)-5^3-(Trifluoromethyl)-1^4H-6-oxa-3-aza-2(2,6)-pyridina-1(3,4)-triazola-5(1,2)-benzenacyclodecaphan-8-en-4-one], the IC50 on GST-hASK1 (class given in words) is no less than 10000 nM; in assay [1] (setting [2]), greater than 10000 nM.
Take `O=C1Nc2cccc(n2)-c2nncn2C/C=C\COc2ccc(N3CCOCC3)cc21` [Example 169, (Z)-5^5-Morpholino-1^4H-6-oxa-3-aza-2(2,6)-pyridina-1(3,4)-triazola-5(1,2)-benzenacyclodecaphan-8-en-4-one]: the IC50 against GST-hASK1 was less than 100 nM; in assay [1] (read-out: IC50), less than 1000 nM.

Values taken from patent US11168095B2, “ASK1 inhibiting agents” (BIOGEN MA INC., priority 2017, dated 2021).
